Source: patent US20250346582A1, “SPLEEN TYROSINE KINASE INHIBITORS AND METHODS OF USE THEREOF” (THE BOARD OF TRUSTEES OF THE UNIVERSITY OF ILLINOIS, priority 2022, published 2025)
Values belong to the compound of their own block, whether it stands above or below them.

Columns and labels:
[1] = system: plasma membrane translocation of EGFP-Syk WT; test: Subcellular localization of EGFP-Syk WT in DT40 cells; assay type: cell-based, chicken; settings: IgM stimulation
Procedure: DT40-Syk^−/− cells transfected with EGFP-Syk WT (or K220/K222A) and mCherry-mCherry-eMyoX-tPH were imaged under 100× magnification with a Nikon Eclipse Ti2 microscope using the NIS element software. For IgM stimulation, cells were dropped on the IgM-coated surface (10 ng/ml) covered with the imaging buffer (HBSS pH 7.4, 2 mM MgCl2, 1% FBS) and incubated for 10 min before imaging. Pearson's correlation coefficient (y) was calculated using Coloc 2, which is a Fiji's plugin for colocalization analysis. The plasma membrane was selected as the region of interest for calculation of the coefficient. Averages ±s.d.'s of γ values were calculated from triplicate determinations.

[2] = molecular target: T1, Syk (Homo sapiens, UniProt P43405); test: Mass spectrometry proteomics of WC36B-binding cellular proteins; assay type: cell-based; settings: biotin as negative control
T1 construct: host or cells: MV4-11 AML cells (naive and entospletinib-resistant)
Procedure: (§1) Streptavidin-coated beads (Dynabeads™ M280 streptavidin beads; ThermoFisher) were washed twice with 1 ml of PBST (PBS+0.1% Tween 20) and resuspended in 100 μl of PBST. WC36B (or biotin) (10 mM) was added to 100 μl of the bead suspension and the mixture was incubated at room temperature for 15 min with gentle shaking. The mixture was then vortexed for 5 s and the tube was placed on a magnet for 1 min. After discarding the supernatant, the beads were resuspended in the same volume of the washing buffer. Washing is repeated three times to remove excess WC36B. WC36B-coated beads were then incubated with the cell lysate (MV-4-11) for 30 min at room temperature with gentle shaking. Protein-coated beads were separated with a magnet for 2-3 min and washed 4-5 times with PBS containing 0.1% BSA. The protein was then removed from the beads by boiling the beads in the SDS-polyacrylamide gel electrophoresis (PAGE) application buffer. Samples were concentrated for the mass spectrometry analysis and the western blot assay.
MS analysis was performed to identify proteins captured by WC36B and biotin. […]

[3] = molecular target: T1, Syk; test: Streptavidin pull down assay with WC36B in MV4-11 cells; assay type: cell-based; settings: MV4-11 cells, 5 μM for 24 h, immunoblotting
Procedure: as §1

[4] = system: phosphorylation of Syk, ERK1/2 and STAT3/5; test: Western blot of phosphorylation in entospletinib-resistant MV4-11 cells; assay type: cell-based; settings: 5 μM
Procedure: (§2) Cells were seeded at a density of 3.0×10^5 cells/well prior to incubation with inhibitors. Cells were incubated with 1-5 μM of Syk inhibitors overnight and stimulated with different antibodies: IgG2 for AML cells, IgM for Raji B cells, and OKT3 (Biolegend) for Jurkat cells. The cells were lysed in NP40 lysis buffer (50 mM Tris, pH 7.5, 150 mM NaCl, 1 mM EDTA, 1% NP40, 10% glycerol, 10 mM NaF, 10 mM Na3VO4, and the protease inhibitor cocktail) at 4° C. and the cell debris was removed by centrifugation. Samples were analyzed by SDS-PAGE. Proteins were separated and transferred to Immobilon-P polyvinylidene difluoride membrane (Millipore Sigma). The membrane was blocked with 5% bovine serum albumin for 1 h and incubated overnight at 4° C. with various antibodies (1:1000 dilution for all antibodies). After the unbound antibodies were removed by washing with 0.1% Tris buffer saline with 0.1% Tween20, the membranes were incubated with the horseradish peroxidase secondary antibody (1:5000 dilution) for 1 h at room temperature. The membranes were washed three more times with 0.1% Tris buffer saline with 0.1% Tween20 to remove the unbound horseradish peroxidase secondary antibody before imaging. The chemiluminescence intensity of protein bands in the gel was analyzed and documented by the Azure 500Q Imaging System.
(§3) Then the concentration was maintained at 5 μM.

[5] = molecular target: T2, pZAP70 (Homo sapiens, UniProt P43403); test: Western blot inhibition of ZAP70 phosphorylation in Jurkat T cells; assay type: cell-based; settings: Jurkat T cells stimulated by OKT3; 5 μM overnight
T2 construct: host or cells: Jurkat T cells, OKT3-stimulated
T2 sequence (P43403 1-619): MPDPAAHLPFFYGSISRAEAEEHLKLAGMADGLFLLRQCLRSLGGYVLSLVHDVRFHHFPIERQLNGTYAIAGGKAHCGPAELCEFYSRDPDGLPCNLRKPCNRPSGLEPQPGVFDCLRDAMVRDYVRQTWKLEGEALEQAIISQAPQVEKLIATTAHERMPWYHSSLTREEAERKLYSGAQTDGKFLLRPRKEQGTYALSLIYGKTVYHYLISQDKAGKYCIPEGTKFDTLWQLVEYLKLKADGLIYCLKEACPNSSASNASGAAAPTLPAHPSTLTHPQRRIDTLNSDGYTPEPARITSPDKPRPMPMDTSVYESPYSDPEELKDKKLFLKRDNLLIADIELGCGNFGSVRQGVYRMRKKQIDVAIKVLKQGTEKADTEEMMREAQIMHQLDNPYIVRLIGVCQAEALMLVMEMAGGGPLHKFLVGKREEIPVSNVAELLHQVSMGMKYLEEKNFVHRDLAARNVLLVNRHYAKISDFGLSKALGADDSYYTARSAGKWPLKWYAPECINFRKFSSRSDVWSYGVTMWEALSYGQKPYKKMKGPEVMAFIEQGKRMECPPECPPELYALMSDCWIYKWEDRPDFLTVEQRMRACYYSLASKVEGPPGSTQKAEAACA
Procedure: (a) Cellular efficacy of WC35, WC36, and WC38 was determined by dose-dependent inhibition of Syk phosphorylation in Raji B cells. (b) Imax and IC50 values were determined by non-linear least-squares analysis of data using the equation: […] Each data represents average ±s.d. from triplicate measurements. […] Jurkat T cells were stimulated by OKT3. Cells were seeded at a density of 3.0×10^5 cells/well prior to incubation with inhibitors. […] IgG2 for AML cells, IgM for Raji B cells, and OKT3 (Biolegend) for Jurkat cells. […] Samples were analyzed by SDS-PAGE. Proteins were separated and transferred to Immobilon-P polyvinylidene difluoride membrane (Millipore Sigma). […] The chemiluminescence intensity of protein bands in the gel was analyzed and documented by the Azure […] Imaging System.

[6] = system: phosphorylation of ERK1/2 and STAT3/5; test: Western blot of phosphorylation in HL60 cells; assay type: cell-based; settings: RAS-mutated HL60 cells; 5 μM
Procedure: FIGS. 3A-3D show the inhibition of the signaling activity and proliferation of HL-60 AML cells by Syk-cSH2 inhibitors. […] DMSO was used as a negative control and GAPDH as a gel loading control. […] (c) Inhibition of phosphorylation of Syk, STAT3/5 and ERK1/2 in patient-derived primary AML cells by WC36. Cells were cultured overnight in the presence of CD34+ cytokine supplement. DMSO was used as a negative control. Representative data from one (Patient 1) of four patient samples are shown here. (d) Inhibition of the proliferation of four patient AML cells by WC36 measured by the colony growth assay. The number of colonies after WC36 treatment was normalized to the enumerated colonies after DMSO treatment.
as §2

[7] = system: MV4-11 cells; test: Generation of drug-resistant MV4-11 cells under chronic treatment; assay type: cell-based; settings: inhibitor increased from 0.5 to 5 μM over 10 weeks
Procedure: as §3

Structure (SMILES): CS(=O)(=O)N1CCN(Cc2cc3nc(-c4cccc5[nH]ncc45)nc(N4CCOCC4)c3s2)CC1 [GDC-0941]
plasma membrane translocation of EGFP-Syk WT [1]: greatly suppressed

capture of Syk by streptavidin pulldown [3]: targets Syk in MV4-11 cells
Structure (SMILES): [N-]=[N+]=C(C(=O)NCCNC(=O)CCCC[C@H]1SC[C@H]2NC(=O)N[C@H]21)C(Nc1ncccn1)c1c[nH]c2ccccc12 (stereo partly drawn) [WC36B, N-(2-(2-diazo-3-(1H-indol-3-yl)-3-(pyrimidin-2-ylamino)propanamido)ethyl)-5-((3aR,4R,6aS)-2-oxohexahydro-1H-thieno[3,4d]imidazol-4-yl)pentanamide]
proteins captured (proteomics) [2]: Syk is the single major protein that is captured by the WC36 pharmacophore

Structure (SMILES): c1cn2cc(-c3ccc4cn[nH]c4c3)nc(Nc3ccc(N4CCOCC4)cc3)c2n1 [entospletinib, reference compound]
inhibition of phosphorylation of Syk, ERK1/2 and STAT3/5 [4]: could not inhibit phosphorylation of ERK1/2 and STAT3/5 in resistant MV4-11 cells while still potently inhibiting Syk phosphorylation | inhibition of ZAP-70 phosphorylation [5]: significantly inhibited ZAP-70 phosphorylation | inhibition of phosphorylation of ERK1/2 and STAT3/5 [6]: could not suppress phosphorylation of ERK1/2 and STAT3/5 | development of acquired resistance [7]: readily developing resistance to entospletinib
